According to PMC5513037, “Examining the influence of specificity ligands and ATP-competitive ligands on the overall effectiveness of bivalent kinase inhibitors” (Proteome Science, 2017):
pIC50: −log10 of the molar value.

What was measured:
Experiment in all cases: KAM-matrix competition in K562 lysate;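 for 0.001 uM KAM: median log10 fold change of treatment over DMSO control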;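 for 0.01 uM KAM: median log10 fold change of treatment over DMSO control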;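 for 0.1 uM KAM: median log10 fold change of treatment over DMSO control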;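 for 1 uM KAM: median log10 fold change of treatment over DMSO control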;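 for 10 uM KAM: median log10 fold change of treatment over DMSO control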
Assay type in all cases: binding
GAK = target: T1, GAK (Homo sapiens, UniProt O14976)
T1 construct: endogenous in cells; host or cells: K562 cell lysate
T1 sequence (O14976 1-1311): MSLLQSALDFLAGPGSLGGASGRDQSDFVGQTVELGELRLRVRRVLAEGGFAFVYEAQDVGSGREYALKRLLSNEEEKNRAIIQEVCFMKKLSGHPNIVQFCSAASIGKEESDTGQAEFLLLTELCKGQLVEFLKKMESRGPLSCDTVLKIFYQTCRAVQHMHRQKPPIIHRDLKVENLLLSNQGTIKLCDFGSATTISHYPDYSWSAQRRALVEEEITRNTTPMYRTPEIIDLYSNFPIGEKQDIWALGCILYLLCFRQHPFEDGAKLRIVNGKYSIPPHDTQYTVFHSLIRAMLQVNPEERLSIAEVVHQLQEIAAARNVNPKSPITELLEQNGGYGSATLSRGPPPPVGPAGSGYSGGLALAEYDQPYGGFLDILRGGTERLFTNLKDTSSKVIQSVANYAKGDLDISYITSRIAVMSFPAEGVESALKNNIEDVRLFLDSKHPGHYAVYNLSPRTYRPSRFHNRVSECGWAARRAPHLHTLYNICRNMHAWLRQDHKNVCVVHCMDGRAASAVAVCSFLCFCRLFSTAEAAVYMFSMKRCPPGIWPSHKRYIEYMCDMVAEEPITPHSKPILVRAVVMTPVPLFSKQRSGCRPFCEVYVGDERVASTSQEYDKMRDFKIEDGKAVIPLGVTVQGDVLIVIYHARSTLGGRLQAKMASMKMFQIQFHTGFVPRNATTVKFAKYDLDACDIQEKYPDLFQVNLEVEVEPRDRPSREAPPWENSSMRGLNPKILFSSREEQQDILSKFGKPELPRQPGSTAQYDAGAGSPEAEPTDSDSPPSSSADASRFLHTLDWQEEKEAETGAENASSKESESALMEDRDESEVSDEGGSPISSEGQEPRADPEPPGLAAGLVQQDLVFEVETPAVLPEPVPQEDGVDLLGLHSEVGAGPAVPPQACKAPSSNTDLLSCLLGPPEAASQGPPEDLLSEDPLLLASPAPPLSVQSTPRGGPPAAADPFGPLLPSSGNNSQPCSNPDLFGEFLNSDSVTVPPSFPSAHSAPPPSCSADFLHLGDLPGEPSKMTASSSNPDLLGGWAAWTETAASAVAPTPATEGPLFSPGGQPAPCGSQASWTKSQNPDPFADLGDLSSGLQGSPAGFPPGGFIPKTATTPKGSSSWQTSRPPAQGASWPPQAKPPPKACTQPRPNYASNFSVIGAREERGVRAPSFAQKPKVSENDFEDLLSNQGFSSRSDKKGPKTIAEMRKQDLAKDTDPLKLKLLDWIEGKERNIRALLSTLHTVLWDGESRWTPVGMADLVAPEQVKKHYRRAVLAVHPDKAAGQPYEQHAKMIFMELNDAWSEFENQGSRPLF
Method: (§1) Supplement 12953_2017_125_MOESM1_ESM.zip/MS_Supp Info.xlsx, sheet "KAM" | column: 10 uM KAM; 1 uM KAM; 0.1 uM KAM; 0.01 uM KAM; 0.001 uM KAM; RB50

SLK = target: T2, SLK (Homo sapiens, UniProt Q9H2G2)
T2 construct: endogenous in cells; host or cells: K562
Method: as §1

MAP3K7 = target: T3, MAP3K7 (Homo sapiens, UniProt O43318)
T3 construct: endogenous in cells; host or cells: K562 cells (lysate)
T3 sequence (O43318 1-606): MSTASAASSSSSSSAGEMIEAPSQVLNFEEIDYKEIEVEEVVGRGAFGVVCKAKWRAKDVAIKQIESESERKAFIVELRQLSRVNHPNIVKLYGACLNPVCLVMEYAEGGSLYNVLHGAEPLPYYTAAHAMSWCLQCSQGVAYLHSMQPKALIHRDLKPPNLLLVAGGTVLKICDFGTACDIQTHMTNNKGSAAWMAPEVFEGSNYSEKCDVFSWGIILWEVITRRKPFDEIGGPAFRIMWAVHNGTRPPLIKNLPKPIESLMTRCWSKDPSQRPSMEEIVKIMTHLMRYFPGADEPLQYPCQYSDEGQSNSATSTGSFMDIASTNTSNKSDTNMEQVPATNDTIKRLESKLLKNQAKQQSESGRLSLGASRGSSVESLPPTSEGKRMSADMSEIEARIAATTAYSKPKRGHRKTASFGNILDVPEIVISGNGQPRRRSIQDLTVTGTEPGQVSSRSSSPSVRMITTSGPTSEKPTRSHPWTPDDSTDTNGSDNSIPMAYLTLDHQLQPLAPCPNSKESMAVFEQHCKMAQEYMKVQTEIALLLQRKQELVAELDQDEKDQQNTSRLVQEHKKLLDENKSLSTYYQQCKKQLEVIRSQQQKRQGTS
Method: as §1

PRKDC = target: T4, PRKDC (Homo sapiens, UniProt P78527);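 for 0.001 uM KAM: median log10 fold change of treatment over DMSO control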;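 for 0.01 uM KAM: median log10 fold change of treatment over DMSO control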;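 for 0.1 uM KAM: median log10 fold change of treatment over DMSO control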;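 for 1 uM KAM: median log10 fold change of treatment over DMSO control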;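 for 10 uM KAM: median log10 fold change of treatment over DMSO control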
T4 construct: endogenous in cells; host or cells: K562
Method: as §1

TYK2 = target: T5, TYK2 (Homo sapiens, UniProt P29597)
T5 construct: endogenous in cells; host or cells: K562
Method: as §1

PKN3 = target: T6, PKN3 (Homo sapiens, UniProt Q6P5Z2);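 for 0.001 uM KAM: median log10 fold change of treatment over DMSO control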;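 for 0.01 uM KAM: median log10 fold change of treatment over DMSO control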;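 for 0.1 uM KAM: median log10 fold change of treatment over DMSO control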;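 for 1 uM KAM: median log10 fold change of treatment over DMSO control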;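 for 10 uM KAM: median log10 fold change of treatment over DMSO control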
T6 construct: endogenous in cells; host or cells: K562
Method: as §1

RAF1 = target: T7, RAF1 (Homo sapiens, UniProt P04049);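 for 0.001 uM KAM: median log10 fold change of treatment over DMSO control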;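 for 0.01 uM KAM: median log10 fold change of treatment over DMSO control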;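 for 0.1 uM KAM: median log10 fold change of treatment over DMSO control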;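 for 1 uM KAM: median log10 fold change of treatment over DMSO control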;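 for 10 uM KAM: median log10 fold change of treatment over DMSO control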
T7 construct: endogenous in cells; host or cells: K562
Method: as §1

[1] = read-out: RB50 (the source's name)
[2] = KAM 0.001-10 uM, read-out: RB50 (the source's name)

T4 sequence (P78527 whole entry): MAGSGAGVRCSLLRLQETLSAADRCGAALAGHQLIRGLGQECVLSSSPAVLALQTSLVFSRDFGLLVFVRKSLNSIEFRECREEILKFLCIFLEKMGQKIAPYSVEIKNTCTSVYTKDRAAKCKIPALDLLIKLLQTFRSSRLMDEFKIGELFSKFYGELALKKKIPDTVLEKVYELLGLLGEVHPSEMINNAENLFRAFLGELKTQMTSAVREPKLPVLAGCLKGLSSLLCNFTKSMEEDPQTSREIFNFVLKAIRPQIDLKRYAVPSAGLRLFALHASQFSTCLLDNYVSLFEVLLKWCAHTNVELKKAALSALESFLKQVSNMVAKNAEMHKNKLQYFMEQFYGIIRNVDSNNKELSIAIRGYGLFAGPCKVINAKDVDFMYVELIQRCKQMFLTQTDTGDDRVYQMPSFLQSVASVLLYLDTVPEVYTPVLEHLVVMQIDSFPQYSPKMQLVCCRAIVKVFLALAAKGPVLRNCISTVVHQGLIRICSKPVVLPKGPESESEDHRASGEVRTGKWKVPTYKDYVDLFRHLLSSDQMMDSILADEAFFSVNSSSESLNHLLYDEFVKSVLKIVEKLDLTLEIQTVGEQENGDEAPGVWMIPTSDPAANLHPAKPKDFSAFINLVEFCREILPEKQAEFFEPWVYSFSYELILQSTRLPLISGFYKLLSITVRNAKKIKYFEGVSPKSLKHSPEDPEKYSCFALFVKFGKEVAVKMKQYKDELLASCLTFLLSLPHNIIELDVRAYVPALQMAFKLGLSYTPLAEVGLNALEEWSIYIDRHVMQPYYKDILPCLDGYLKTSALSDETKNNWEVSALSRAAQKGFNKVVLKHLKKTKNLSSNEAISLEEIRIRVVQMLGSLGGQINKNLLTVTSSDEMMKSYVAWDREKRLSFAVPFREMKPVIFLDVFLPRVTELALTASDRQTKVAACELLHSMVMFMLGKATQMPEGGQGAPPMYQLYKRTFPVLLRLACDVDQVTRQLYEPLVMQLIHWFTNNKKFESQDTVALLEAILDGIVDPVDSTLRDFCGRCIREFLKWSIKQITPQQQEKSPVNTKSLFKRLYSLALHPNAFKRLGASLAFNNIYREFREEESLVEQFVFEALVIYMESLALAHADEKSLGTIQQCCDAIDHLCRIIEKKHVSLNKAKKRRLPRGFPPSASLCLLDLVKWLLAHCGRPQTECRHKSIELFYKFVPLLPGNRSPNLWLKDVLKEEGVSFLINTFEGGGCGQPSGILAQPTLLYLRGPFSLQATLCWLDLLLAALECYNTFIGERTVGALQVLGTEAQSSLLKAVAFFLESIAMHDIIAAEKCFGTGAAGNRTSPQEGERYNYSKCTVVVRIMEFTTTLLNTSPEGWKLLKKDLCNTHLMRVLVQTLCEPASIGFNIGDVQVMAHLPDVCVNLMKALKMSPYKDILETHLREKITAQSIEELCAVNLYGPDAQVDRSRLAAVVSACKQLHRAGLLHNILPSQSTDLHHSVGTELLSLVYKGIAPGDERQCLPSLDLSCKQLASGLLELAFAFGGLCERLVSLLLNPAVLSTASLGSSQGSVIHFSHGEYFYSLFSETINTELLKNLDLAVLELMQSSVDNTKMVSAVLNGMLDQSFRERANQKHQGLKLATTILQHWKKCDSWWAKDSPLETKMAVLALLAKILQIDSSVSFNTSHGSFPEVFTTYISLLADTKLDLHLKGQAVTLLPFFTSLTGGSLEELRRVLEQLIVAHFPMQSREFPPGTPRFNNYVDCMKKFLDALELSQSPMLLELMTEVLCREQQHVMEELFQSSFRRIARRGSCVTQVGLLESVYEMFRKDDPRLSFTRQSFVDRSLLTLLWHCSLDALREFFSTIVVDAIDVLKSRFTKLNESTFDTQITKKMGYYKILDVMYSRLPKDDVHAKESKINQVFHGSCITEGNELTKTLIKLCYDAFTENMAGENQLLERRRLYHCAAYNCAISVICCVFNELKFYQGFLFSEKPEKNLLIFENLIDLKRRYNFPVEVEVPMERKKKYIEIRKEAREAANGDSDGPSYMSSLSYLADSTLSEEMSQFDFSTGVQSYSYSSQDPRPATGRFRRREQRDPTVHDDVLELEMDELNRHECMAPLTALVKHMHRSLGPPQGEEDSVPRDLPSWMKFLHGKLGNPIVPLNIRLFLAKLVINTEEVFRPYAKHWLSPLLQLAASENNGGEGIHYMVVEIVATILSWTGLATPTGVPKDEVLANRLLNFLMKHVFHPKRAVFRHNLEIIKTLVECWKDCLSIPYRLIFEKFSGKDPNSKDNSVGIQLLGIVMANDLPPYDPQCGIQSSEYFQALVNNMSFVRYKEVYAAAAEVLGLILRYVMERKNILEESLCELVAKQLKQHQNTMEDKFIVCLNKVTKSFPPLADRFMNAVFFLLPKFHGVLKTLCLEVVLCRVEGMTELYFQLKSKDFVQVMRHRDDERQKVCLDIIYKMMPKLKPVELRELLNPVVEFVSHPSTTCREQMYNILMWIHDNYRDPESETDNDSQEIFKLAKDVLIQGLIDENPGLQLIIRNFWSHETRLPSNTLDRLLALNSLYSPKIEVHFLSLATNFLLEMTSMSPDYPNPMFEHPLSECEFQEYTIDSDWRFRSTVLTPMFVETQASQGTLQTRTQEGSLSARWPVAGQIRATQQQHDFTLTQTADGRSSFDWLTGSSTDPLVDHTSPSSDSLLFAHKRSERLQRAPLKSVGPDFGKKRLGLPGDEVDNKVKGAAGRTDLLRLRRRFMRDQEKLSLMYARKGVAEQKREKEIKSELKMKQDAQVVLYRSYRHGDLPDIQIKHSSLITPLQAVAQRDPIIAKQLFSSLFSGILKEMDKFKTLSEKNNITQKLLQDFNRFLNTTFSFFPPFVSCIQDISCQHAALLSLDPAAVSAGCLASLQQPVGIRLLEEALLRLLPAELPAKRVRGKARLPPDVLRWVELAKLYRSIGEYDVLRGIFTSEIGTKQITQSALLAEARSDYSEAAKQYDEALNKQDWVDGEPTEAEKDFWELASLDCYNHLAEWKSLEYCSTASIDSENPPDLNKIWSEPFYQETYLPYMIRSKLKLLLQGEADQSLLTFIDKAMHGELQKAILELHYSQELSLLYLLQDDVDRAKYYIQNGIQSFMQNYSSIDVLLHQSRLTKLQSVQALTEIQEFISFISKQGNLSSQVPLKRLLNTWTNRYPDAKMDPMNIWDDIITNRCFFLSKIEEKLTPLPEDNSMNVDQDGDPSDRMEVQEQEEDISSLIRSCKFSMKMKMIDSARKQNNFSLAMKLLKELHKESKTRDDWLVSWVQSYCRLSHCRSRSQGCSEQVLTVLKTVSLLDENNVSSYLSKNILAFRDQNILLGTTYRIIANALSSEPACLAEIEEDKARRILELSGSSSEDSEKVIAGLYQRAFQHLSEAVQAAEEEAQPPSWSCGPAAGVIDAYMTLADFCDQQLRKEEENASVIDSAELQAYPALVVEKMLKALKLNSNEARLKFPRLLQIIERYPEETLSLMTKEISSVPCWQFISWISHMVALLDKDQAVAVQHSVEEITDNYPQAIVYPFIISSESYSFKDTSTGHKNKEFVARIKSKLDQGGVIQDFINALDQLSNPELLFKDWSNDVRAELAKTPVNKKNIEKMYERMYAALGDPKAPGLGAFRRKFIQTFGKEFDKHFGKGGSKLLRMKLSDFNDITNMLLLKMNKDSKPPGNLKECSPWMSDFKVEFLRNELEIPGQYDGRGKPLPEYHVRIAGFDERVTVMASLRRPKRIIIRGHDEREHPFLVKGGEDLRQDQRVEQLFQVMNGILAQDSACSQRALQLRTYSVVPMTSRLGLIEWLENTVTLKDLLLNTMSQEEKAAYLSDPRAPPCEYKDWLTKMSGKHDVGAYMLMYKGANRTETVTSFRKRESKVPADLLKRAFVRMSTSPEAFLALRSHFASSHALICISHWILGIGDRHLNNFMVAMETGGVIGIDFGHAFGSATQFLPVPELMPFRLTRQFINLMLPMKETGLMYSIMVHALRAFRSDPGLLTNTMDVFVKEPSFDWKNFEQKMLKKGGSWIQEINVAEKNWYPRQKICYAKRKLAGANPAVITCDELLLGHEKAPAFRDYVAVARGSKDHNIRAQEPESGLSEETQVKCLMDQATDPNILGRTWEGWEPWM
T7 sequence (P04049 whole entry): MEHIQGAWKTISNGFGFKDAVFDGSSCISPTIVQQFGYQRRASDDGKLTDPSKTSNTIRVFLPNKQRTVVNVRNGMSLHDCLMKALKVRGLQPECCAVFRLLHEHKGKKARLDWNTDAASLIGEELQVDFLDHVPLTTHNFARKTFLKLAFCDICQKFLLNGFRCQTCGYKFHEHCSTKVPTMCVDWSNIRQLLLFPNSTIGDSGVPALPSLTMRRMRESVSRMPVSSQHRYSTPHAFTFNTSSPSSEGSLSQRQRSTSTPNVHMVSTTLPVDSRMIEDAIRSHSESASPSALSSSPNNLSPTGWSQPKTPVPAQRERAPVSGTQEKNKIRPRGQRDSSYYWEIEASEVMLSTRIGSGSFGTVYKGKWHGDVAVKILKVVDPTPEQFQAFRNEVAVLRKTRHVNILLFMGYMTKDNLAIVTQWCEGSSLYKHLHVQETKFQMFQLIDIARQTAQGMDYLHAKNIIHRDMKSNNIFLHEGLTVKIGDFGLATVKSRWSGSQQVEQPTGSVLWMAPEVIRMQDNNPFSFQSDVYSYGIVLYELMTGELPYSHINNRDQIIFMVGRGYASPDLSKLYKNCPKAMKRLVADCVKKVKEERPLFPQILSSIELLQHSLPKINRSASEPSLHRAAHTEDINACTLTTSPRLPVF

## N#CCc1ccc(Nc2nc(NCCCN)cc(Nc3cc(C4CC4)[nH]n3)n2)cc1 [KAM]
GAK; 0.001 uM KAM
  median Log10 fold change: -0.03137
GAK; 0.01 uM KAM
  median Log10 fold change: -0.03807
GAK; 0.1 uM KAM
  median Log10 fold change: -0.2019
GAK; 1 uM KAM
  median Log10 fold change: -0.4109
GAK; 10 uM KAM
  median Log10 fold change: -0.5049
GAK; [1]
  pIC50: 6.37
SLK; 0.001 uM KAM
  median Log10 fold change: 0.008335
SLK; 0.01 uM KAM
  median Log10 fold change: -0.005793
SLK; 0.1 uM KAM
  median Log10 fold change: -0.3118
SLK; 1 uM KAM
  median Log10 fold change: -0.5551
SLK; 10 uM KAM
  median Log10 fold change: -0.6917
SLK; [1]
  pIC50: 6.86
MAP3K7; 0.001 uM KAM
  median Log10 fold change: -0.02589
MAP3K7; 0.01 uM KAM
  median Log10 fold change: -0.01486
MAP3K7; 0.1 uM KAM
  median Log10 fold change: -0.1357
MAP3K7; 1 uM KAM
  median Log10 fold change: -0.3563
MAP3K7; 10 uM KAM
  median Log10 fold change: -0.511
MAP3K7; [1]
  pIC50: 6.10
PRKDC; [2]
  pIC50: < 5.00
PRKDC; relative to 0 uM KAM = 0
  0.001 uM KAM: -0.0162
  0.01 uM KAM: -0.0236
  0.1 uM KAM: -0.1053
  1 uM KAM: -0.1689
  10 uM KAM: -0.08641
TYK2; 0.001 uM KAM
  median Log10 fold change: -0.01748
TYK2; 0.01 uM KAM
  median Log10 fold change: -0.01468
TYK2; 0.1 uM KAM
  median Log10 fold change: -0.1723
TYK2; 1 uM KAM
  median Log10 fold change: -0.4058
TYK2; 10 uM KAM
  median Log10 fold change: -0.4958
TYK2; [1]
  pIC50: 6.27
PKN3; [2]
  pIC50: < 5.00
PKN3; relative to 0 uM KAM = 0
  0.001 uM KAM: 0.01928
  0.01 uM KAM: 0.02728
  0.1 uM KAM: -0.02092
  1 uM KAM: -0.1078
  10 uM KAM: -0.2223
RAF1; [2]
  pIC50: < 5.00
RAF1; relative to 0 uM KAM = 0
  0.001 uM KAM: 0.02436
  0.01 uM KAM: -0.01322
  0.1 uM KAM: -0.08739
  1 uM KAM: -0.1339
  10 uM KAM: -0.1871
